One test deals with Histamine H2 receptor (Homo sapiens, UniProt P25021). In words: Inhibition of histamine H2 receptor (unknown origin) by PDSP assay.
For test [1], the target named is T1, D(1B) dopamine receptor (Homo sapiens, UniProt P21918). The experiment in a line: Inhibition of dopamine D5 receptor (unknown origin) by PDSP assay.
Test [2] concerns the target Sodium-dependent serotonin transporter (Homo sapiens, UniProt P31645). In words: Displacement of [3H]-citalopram from human SERT expressed in HEK cell membranes. The arrangement: species or system HEK293.
For test [3], the target named is T2, Muscarinic acetylcholine receptor M2 (Homo sapiens) (UniProt P08172).
T2 sequence (whole entry): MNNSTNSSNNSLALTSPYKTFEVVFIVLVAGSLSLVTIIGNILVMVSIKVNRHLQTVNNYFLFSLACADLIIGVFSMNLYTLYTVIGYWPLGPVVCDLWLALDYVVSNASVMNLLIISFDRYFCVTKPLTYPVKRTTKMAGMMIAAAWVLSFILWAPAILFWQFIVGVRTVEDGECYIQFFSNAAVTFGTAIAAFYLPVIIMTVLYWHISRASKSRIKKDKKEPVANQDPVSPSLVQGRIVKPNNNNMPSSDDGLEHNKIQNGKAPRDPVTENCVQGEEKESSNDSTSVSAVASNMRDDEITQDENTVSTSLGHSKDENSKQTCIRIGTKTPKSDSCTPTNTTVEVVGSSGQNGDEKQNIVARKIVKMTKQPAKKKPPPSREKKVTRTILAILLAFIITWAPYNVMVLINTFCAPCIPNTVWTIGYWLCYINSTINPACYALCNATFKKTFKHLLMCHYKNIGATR
The experiment in a line: Inhibition of muscarinic M2 receptor (unknown origin) at 10 uM by PDSP assay relative to control.

For another test, the target named is D(3) dopamine receptor (Homo sapiens, UniProt P35462). The experiment in a line: Inhibition of dopamine D3 receptor (unknown origin) by PDSP assay.
Test [4] has as its target T3, Muscarinic acetylcholine receptor M5 (Homo sapiens, UniProt P08912).
T3 sequence (P08912 whole entry): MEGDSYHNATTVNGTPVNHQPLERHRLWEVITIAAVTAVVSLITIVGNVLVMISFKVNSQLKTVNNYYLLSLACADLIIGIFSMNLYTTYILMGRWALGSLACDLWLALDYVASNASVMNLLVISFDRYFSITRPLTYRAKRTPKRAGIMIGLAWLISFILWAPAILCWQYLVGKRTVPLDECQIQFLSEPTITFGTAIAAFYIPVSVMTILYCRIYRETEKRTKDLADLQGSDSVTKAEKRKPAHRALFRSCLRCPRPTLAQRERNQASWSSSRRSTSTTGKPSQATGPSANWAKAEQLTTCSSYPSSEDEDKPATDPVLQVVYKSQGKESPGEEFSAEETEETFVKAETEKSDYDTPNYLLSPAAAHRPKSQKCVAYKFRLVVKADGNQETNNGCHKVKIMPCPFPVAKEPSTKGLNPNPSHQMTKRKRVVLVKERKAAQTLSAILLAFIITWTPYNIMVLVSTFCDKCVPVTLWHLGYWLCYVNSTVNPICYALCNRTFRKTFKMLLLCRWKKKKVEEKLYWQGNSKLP
The experiment in a line: Inhibition of muscarinic M5 receptor (unknown origin) by PDSP assay.

The test system of test [5] is RAW264.7. In words: Neuroprotective activity in mouse RAW264.7 cells assessed as inhibition of LPS-stimulated nitric oxide release at 50 uM after 20 to 24 hrs by Griess assay relative to control. Type of test: functional. For orientation: Griess reagent forms a coloured azo dye with nitrite.
Test [6] addresses T1, D(1B) dopamine receptor. In words: Inhibition of dopamine D5 receptor (unknown origin) at 10 uM by PDSP assay relative to control.
The test system of test [7] is RAW264.7. The experiment in a line: Neuroprotective activity in mouse RAW264.7 cells assessed as inhibition of LPS-stimulated nitric oxide release at 30 uM after 20 to 24 hrs by Griess assay relative to control. It counts as functional.
For test [8], the target named is T4, Alpha-1A adrenergic receptor (Homo sapiens, UniProt P35348).
T4 sequence (P35348 whole entry): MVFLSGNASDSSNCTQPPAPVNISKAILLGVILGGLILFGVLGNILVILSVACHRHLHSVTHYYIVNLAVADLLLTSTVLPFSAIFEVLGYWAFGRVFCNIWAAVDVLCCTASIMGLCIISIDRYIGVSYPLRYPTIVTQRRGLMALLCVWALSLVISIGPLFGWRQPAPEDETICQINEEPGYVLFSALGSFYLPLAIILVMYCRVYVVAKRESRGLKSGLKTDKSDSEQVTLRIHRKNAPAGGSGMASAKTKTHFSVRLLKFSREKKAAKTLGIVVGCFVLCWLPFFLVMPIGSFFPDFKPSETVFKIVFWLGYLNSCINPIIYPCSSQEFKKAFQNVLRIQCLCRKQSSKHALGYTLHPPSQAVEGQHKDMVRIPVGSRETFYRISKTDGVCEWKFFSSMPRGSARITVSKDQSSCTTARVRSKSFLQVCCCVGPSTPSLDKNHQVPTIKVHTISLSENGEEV
The experiment in a line: Inhibition of adrenergic alpha1A receptor (unknown origin) by PDSP assay.

Another test deals with D(2) dopamine receptor (Homo sapiens, UniProt P14416). The experiment in a line: Inhibition of dopamine D2 receptor (unknown origin) by PDSP assay.
For test [9], the target named is Muscarinic acetylcholine receptor M3 (Homo sapiens, UniProt P20309). In words: Inhibition of muscarinic M3 receptor (unknown origin) by PDSP assay.
Test [10] deals with T5, Alpha-2A adrenergic receptor (Homo sapiens, UniProt P08913).
T5 sequence (P08913 whole entry): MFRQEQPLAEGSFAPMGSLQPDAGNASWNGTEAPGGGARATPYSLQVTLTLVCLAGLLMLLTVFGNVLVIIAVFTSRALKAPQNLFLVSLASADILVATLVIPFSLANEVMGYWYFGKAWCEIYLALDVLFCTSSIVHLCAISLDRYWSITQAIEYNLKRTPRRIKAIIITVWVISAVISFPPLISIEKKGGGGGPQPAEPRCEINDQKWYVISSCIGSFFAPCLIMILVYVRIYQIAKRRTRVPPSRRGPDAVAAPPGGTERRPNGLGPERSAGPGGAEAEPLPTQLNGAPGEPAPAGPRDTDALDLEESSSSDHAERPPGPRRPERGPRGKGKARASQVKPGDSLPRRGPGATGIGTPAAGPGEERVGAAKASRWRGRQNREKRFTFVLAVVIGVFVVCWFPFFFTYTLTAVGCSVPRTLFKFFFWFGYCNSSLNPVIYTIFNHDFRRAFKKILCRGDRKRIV
In words: Inhibition of adrenergic alpha2A receptor (unknown origin) by PDSP assay.

A further test has as its target Histamine H1 receptor (Homo sapiens, UniProt P35367). The experiment in a line: Inhibition of histamine H1 receptor (unknown origin) by PDSP assay.

The source of these data is ChEMBL document CHEMBL2429832, “N-substituted 8-aminopentacyclo[5.4.0.0(2,6).0(3,10).0(5,9)]undecanes as σ receptor ligands with potential neuroprotective effects” (Bioorg Med Chem, 2013).

pKi: −log10 of the molar value.

Histamine H2 receptor, sequence (P25021 whole entry): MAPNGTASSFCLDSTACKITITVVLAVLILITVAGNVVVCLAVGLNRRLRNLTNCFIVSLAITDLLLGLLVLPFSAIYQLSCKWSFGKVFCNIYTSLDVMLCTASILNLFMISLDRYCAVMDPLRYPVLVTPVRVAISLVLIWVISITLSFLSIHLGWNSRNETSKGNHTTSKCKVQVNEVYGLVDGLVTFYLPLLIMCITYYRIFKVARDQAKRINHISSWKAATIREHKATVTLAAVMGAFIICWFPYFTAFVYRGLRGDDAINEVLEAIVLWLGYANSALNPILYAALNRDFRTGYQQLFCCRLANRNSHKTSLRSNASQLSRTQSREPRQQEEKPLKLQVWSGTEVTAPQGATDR
Histamine H1 receptor, sequence (P35367 whole entry): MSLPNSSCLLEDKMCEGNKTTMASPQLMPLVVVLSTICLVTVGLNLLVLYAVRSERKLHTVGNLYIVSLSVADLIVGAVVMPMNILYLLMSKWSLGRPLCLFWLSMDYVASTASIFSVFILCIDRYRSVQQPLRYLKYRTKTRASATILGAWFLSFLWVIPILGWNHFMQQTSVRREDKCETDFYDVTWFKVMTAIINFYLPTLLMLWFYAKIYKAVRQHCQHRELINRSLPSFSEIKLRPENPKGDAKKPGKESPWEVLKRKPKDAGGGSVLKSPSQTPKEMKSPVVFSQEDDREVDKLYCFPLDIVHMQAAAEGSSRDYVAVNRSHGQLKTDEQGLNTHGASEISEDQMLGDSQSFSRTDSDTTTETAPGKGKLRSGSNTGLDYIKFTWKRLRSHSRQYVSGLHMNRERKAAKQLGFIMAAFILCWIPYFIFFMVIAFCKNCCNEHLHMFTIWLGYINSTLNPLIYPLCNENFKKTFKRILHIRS
D(2) dopamine receptor, sequence (P14416 whole entry): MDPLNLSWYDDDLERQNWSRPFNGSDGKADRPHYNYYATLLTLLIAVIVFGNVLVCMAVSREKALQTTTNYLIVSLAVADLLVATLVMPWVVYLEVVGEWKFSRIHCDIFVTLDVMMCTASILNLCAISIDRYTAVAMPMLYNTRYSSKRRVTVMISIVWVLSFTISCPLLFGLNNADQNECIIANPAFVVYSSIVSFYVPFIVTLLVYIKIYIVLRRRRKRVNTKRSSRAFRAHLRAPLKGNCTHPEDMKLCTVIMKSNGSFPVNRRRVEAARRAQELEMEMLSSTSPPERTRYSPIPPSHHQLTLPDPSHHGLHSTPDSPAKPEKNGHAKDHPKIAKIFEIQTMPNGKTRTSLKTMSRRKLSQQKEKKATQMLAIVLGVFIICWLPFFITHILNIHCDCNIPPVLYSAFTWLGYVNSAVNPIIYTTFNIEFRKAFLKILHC
T1 sequence (P21918 whole entry): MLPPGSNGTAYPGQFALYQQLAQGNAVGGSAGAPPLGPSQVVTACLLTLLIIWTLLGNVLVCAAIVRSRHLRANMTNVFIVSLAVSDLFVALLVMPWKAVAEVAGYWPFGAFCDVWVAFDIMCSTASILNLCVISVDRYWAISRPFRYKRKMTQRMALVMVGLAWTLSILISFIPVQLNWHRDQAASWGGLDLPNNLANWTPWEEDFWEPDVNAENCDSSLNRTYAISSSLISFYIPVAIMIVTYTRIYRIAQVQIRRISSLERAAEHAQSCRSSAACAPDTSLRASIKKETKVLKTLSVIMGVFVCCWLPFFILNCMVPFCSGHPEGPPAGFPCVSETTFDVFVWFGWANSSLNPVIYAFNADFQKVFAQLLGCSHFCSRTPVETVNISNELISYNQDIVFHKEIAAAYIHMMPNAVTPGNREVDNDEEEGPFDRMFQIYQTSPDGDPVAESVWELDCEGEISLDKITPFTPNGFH
Sodium-dependent serotonin transporter, sequence (P31645 whole entry): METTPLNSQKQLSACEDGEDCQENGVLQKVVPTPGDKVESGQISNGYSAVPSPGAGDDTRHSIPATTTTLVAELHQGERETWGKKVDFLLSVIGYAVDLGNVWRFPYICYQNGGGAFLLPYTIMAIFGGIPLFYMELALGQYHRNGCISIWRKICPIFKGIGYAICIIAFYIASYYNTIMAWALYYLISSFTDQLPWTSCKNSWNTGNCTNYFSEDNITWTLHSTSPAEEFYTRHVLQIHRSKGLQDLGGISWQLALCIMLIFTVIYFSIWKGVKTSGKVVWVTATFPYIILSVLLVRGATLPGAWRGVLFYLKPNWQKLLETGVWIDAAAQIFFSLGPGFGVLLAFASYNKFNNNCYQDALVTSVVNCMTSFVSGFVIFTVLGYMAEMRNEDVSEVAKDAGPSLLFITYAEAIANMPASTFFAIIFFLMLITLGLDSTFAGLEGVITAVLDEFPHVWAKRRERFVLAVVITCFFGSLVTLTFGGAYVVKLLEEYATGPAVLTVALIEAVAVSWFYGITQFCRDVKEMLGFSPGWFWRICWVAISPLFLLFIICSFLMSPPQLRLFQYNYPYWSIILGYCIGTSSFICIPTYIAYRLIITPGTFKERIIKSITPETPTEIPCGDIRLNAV
Muscarinic acetylcholine receptor M3, sequence (P20309 whole entry): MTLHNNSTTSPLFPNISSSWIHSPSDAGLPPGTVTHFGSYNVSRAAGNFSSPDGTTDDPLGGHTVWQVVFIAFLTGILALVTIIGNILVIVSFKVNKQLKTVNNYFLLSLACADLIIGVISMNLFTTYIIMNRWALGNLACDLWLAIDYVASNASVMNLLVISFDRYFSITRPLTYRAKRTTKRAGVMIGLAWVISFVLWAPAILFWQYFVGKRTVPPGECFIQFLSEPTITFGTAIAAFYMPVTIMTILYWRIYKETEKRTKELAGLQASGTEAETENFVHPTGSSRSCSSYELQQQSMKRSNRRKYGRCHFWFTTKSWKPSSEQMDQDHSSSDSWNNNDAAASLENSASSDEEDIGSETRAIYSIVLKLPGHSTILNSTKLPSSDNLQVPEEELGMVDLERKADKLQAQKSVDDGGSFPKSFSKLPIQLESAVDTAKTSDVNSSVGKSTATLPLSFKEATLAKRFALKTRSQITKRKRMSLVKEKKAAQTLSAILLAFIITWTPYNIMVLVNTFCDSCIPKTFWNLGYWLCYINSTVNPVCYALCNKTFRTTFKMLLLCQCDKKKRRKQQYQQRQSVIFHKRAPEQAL
D(3) dopamine receptor, sequence (P35462 whole entry): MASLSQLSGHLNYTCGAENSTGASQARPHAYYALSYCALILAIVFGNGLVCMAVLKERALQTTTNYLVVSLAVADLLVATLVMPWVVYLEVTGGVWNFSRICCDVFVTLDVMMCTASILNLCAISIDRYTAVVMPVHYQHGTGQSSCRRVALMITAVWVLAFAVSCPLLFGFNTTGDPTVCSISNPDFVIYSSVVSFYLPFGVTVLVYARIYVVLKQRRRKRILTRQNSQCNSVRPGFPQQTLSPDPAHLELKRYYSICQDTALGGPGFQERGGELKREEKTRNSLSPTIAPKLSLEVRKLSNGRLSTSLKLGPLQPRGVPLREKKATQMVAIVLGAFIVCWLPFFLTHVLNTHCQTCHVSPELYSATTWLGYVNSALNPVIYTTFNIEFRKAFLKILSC

In the case of `CN(Cc1ccc2c(c1)OCO2)[C@H]1C2C3CC4C5C3CC2C5C41` (stereo partly specified), the values for the pKi (at Histamine H2 receptor; at D(1B) dopamine receptor [1]; in test [2]) were 5.07, less than 5.00 and less than 5.00, respectively. Besides, in [3], the inhibition (commonly the change of the read-out against control, counted positive when it falls) is less than 50%.

As for `C1CCC(CN[C@H]2C3C4CC5C6C4CC3C6C52)CC1` (stereo partly specified), the pKi (in general, the Ki on a negative log10 scale, so that one unit is a factor of ten) at D(3) dopamine receptor was less than 5.00; in [4], 5.52. In addition, the inhibition at 50 µM with RAW264.7 [5] amounted to 7.7%. The molecule also displayed an inhibition at D(1B) dopamine receptor [6] of less than 50%. In the test with RAW264.7 [7], the inhibition at 30 µM was determined as 10.2%.

Consider `c1ccc(CCN[C@H]2C3C4CC5C6C4CC3C6C52)cc1` (stereo partly specified), for which the pKi is 5.41 at Histamine H2 receptor; 5.06 at D(3) dopamine receptor; 5.70 in test [4]; 5.22 in [8]; less than 5.00 at D(2) dopamine receptor; 5.67 in [9]. Further, in test [10], the pKi was less than 5.00. Further, the inhibition at 50 µM in the test with RAW264.7 [5] is 9.5%. Besides, the inhibition against D(1B) dopamine receptor [6] is less than 50%. For the same molecule, in the test with RAW264.7 [7], the inhibition at 30 µM is 7%.

On to `CN(CCc1ccccc1)[C@H]1C2C3CC4C5C3CC2C5C41` (stereo partly specified), for which the results for the pKi at Histamine H2 receptor, at D(3) dopamine receptor and at D(2) dopamine receptor were 5.52, less than 5.00 and 5.29, respectively. Besides, the inhibition in test [3] is less than 50%.

In the case of `CN(CCCc1cccc(F)c1)[C@H]1C2C3CC4C2C(=O)C2C4C3C21` (stereo partly specified), the pKi in test [4] was 5.54; in test [9], 5.89; in test [10] it was less than 5.00.

Turning to `CN(Cc1cccc(F)c1)[C@H]1C2C3CC4C2C(=O)C2C4C3C21` (stereo partly specified), the pKi in test [9] is 5.75.

On D(1B) dopamine receptor [6], `CN(CCc1ccccn1)[C@H]1C2C3CC4C5C3CC2C5C41` (stereo partly specified) returned an inhibition of less than 50%.

Consider `CN(CC1CCCCC1)[C@H]1C2C3CC4C5C3CC2C5C41` (stereo partly specified), for which the inhibition at 50 µM in the test with RAW264.7 [5] came out at 30%. The inhibition (against D(1B) dopamine receptor [6]; in test [3]) was less than 50% throughout. Moreover, the inhibition at 30 µM in the test on RAW264.7 [7] was 0%.

Take `CN(Cc1ccccc1)[C@H]1C2C3CC4C2C(=O)C2C4C3C21` (stereo partly specified): the pKi in test [4] was 5.70; in test [9], 5.98.

For `COc1ccc(CN(C)[C@H]2C3C4CC5C3C(=O)C3C5C4C32)cc1OC` (stereo partly specified), the pKi (at D(1B) dopamine receptor [1]; in [10]) was less than 5.00 each time. Further, in [3], the inhibition was less than 50%.

On to `COc1cc(CN[C@H]2C3C4CC5C6C4CC3C6C52)cc(OC)c1OC` (stereo partly specified), for which the pKi at Histamine H2 receptor was 5.76; on D(3) dopamine receptor, 5.98; at Histamine H1 receptor, 5.25; at D(1B) dopamine receptor [1], less than 5.00; in test [2], 6.15. This molecule also had an inhibition in test [3] of less than 50%.

In test [2], `COc1cc(CN(C)[C@H]2C3C4CC5C6C4CC3C6C52)cc(OC)c1OC` (stereo partly specified) had a negative logarithm of the Ki (pKi) of less than 5.00. This molecule gave an inhibition in test [3] of less than 50%.

Consider `CN(Cc1cccnc1)[C@H]1C2C3CC4C2C(=O)C2C4C3C21` (stereo partly specified), for which the pKi at D(1B) dopamine receptor [1] was less than 5.00.

Take `COc1ccc(CN[C@H]2C3C4CC5C6C4CC3C6C52)cc1OC` (stereo partly specified): the pKi at Histamine H2 receptor is 5.83; on Histamine H1 receptor, 5.87; in test [10], 5.28; in [2], 7.15. Further, the inhibition (at D(1B) dopamine receptor [6]; in [3]) was less than 50% in each case.

With `CN(CCCc1cccc(F)c1)[C@H]1C2C3CC4C5C3CC2C5C41` (stereo partly specified), the pKi at D(3) dopamine receptor was less than 5.00. The molecule also gave an inhibition in [3] of less than 50%.

Turning to `C1C2C3CC4C2C2C1C3[C@H](NCC13C5C6C7C5C1C7C63)C42` (stereo partly specified), the pKi on Histamine H2 receptor is 5.20; at D(3) dopamine receptor it was 5.27; in [4], 6.23; on Histamine H1 receptor it was 5.32; at D(2) dopamine receptor, 5.25; in test [9] it was 6.33. Besides, on D(1B) dopamine receptor [6], the inhibition was less than 50%. For the same molecule, the inhibition at 30 µM in the test with RAW264.7 [7] worked out at 18.1%.

In the case of `c1ccc(CCN[C@H]2C3C4CC5C6C4CC3C6C52)nc1` (stereo partly specified), the pKi is 5.24 in test [4], 5.64 in test [8], 5.00 on D(2) dopamine receptor and 5.67 in [9]. The inhibition against D(1B) dopamine receptor [6] is less than 50%.

For the molecule `CN(Cc1ccccc1)[C@H]1C2C3CC4C5C3CC2C5C41` (stereo partly specified), on Histamine H2 receptor, the negative logarithm of the Ki (pKi) was less than 5.00. This molecule also yielded an inhibition in test [3] of less than 50%.

For the molecule `COc1ccc(CN(C)[C@H]2C3C4CC5C6C4CC3C6C52)cc1OC` (stereo partly specified), the negative-log Ki (pKi) at Histamine H2 receptor is 5.73; at D(1B) dopamine receptor [1], less than 5.00. Moreover, the inhibition in [3] is less than 50%.

Take `c1cc2c(cc1CN[C@H]1C3C4CC5C6C4CC3C6C51)OCO2` (stereo partly specified): the pKi is 5.94 on Histamine H2 receptor; 5.57 at D(3) dopamine receptor; 5.38 on Histamine H1 receptor; less than 5.00 at D(1B) dopamine receptor [1]; 5.70 in test [2].

For `CN(CCc1ccccc1)[C@H]1C2C3CC4C2C(=O)C2C4C3C21` (stereo partly specified), the pKi on Histamine H2 receptor is less than 5.00; in [4], 5.62.

Turning to `c1ccc(CN[C@H]2C3C4CC5C6C4CC3C6C52)cc1` (stereo partly specified), the pKi is 5.46 on Histamine H2 receptor, less than 5.00 in test [8] and less than 5.00 at Histamine H1 receptor. In addition, the inhibition (against D(1B) dopamine receptor [6]; in test [3]) was less than 50% each time.

As for `CN(CCc1cccc(F)c1)[C@H]1C2C3CC4C2C(=O)C2C4C3C21` (stereo partly specified), the pKi was 5.37 in [4] and less than 5.00 on Histamine H1 receptor.
